Ten compounds from ChEMBL document CHEMBL1201862, “PubChem BioAssay data set” (2004) can be followed below.

Assay in all cases: NCI tumour cell line growth inhibition, 48 h
Assay [1] has as its system SK-OV-3.
Assay [2] has as its system SK-MEL-2.
Assay [3] has as its system PC-3.
For assay [4], the system named is MOLT-4.
Assay [5] relates to NCI-H226.
The test system of assay [6] is CCRF-CEM.
Assay [7] concerns Hs-578T.
For assay [8], the system named is 786-0.
In assay [9] the test system is SN12C.
Assay [10] has as its system COLO 205.
In assay [11] the test system is RPMI-8226.
Assay [12] relates to SR.
Assay [13] has as its system U-251.
Assay [14] has as its system MDA-MB-435.
In assay [15] the test system is IGROV-1.
The subject of assay [16] is TK-10.
Assay [17] deals with CAKI-1.
Assay [18] concerns SK-MEL-28.
Assay [19] relates to ACHN.
In assay [20] the test system is HOP-92.

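Five compound concentrations were applied to cells in 96-well plates for 48 hours; endpoints were derived by simple linear interpolation of the resulting dose-response curve. GI50 = concentration required for 50% inhibition of growth.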 Calls of active or inactive are those of the source. Cut-off read from the data, not from the text of the source: active = GI50 up to about 1.1 µM and inactive = higher.

For the compound `Cc1ccc(S(=O)(=O)Nc2cc(O)nc3c2CCC3)cc1`, the GI50 in [1] was > 100 µM (inactive); in assay [2] it was > 100 µM (inactive); in assay [3], > 100 µM (inactive); in assay [4], 42.9 µM (inactive); in assay [5], > 100 µM (inactive); in assay [6], > 100 µM (inactive). The GI50 in assay [7] was > 100 µM (inactive); in [8] it was > 100 µM (inactive); in assay [9], > 100 µM (inactive); in [10] it was > 100 µM (inactive); in [11], 43.2 µM (inactive); in assay [12], > 100 µM (inactive). The GI50 in assay [13], in assay [14], in assay [15], in assay [16], in [17] and in [18] was > 100 µM (inactive) throughout. For the same compound, the GI50 in assay [19] and in assay [20] was > 100 µM (inactive) in each case.

Take `CC(C)(C)c1cc(C2NC(=O)NC2=O)cc(C(C)(C)C)c1O` (centres undefined): the GI50 is > 100 µM (inactive) in assay [1]; > 100 µM (inactive) in assay [2]; 71.9 µM (inactive) in assay [3]; 39.5 µM (inactive) in assay [4]; > 100 µM (inactive) in assay [5]; 26.1 µM (inactive) in assay [6]. The GI50 in assay [7] was 20.5 µM (inactive); in assay [8], > 10 µM (inactive); in [10] it was > 100 µM (inactive); in [11], 66.5 µM (inactive); in assay [12], 28.8 µM (inactive); in assay [13], 39.5 µM (inactive). Also, the GI50 is 31 µM (inactive) in assay [14]; > 100 µM (inactive) in [15]; 29 µM (inactive) in assay [16]; > 100 µM (inactive) in [17]; 31.7 µM (inactive) in assay [18]; > 100 µM (inactive) in assay [19]. Besides, in [20], the GI50 is 38.1 µM (inactive).

Regarding `CCn1ncc(Oc2c(Cl)cc(N)cc2Cl)c(Cl)c1=O`, the GI50 in [1] was 31.3 µM (inactive); in assay [2] it was 34.6 µM (inactive); in [3], 35.9 µM (inactive); in assay [5], 40.3 µM (inactive); in assay [6], 83 µM (inactive); in [7], 22.5 µM (inactive). The GI50 is 41.5 µM (inactive) in assay [8]; 79.3 µM (inactive) in assay [9]; 22.7 µM (inactive) in assay [10]; 31.6 µM (inactive) in assay [11]; 21.5 µM (inactive) in [12]; 34.1 µM (inactive) in assay [13]. The GI50 is 29.1 µM (inactive) in assay [14]; 42.3 µM (inactive) in assay [15]; 47.2 µM (inactive) in [16]; 35.1 µM (inactive) in assay [17]; 51.3 µM (inactive) in assay [18]; 57.9 µM (inactive) in assay [19]. For the same compound, the GI50 in [20] is 73.6 µM (inactive).

Take `CSC1=C(c2ccc(Cl)cc2)SC(N2CCCCC2)N1c1ccc([N+](=O)[O-])cc1` (centres undefined): the GI50 in assay [1] was 30.9 µM (inactive); in [2] it was 20.5 µM (inactive); in assay [3] it was 18.5 µM (inactive); in assay [4] it was 26 µM (inactive); in assay [5], 76.9 µM (inactive); in [6], 38.4 µM (inactive). Moreover, the GI50 in [7] is 47.9 µM (inactive); in [8], 31.6 µM (inactive); in [10] it was 27.1 µM (inactive); in assay [11] it was 16.6 µM (inactive); in [12], 31.3 µM (inactive); in assay [13] it was 21.4 µM (inactive). For the same compound, the GI50 is 31.6 µM (inactive) in assay [14]; 29.8 µM (inactive) in assay [15]; 42.2 µM (inactive) in [16]; 44.8 µM (inactive) in assay [17]; 38.8 µM (inactive) in assay [18]; 25.2 µM (inactive) in assay [19]. For the same compound, the GI50 in assay [20] is 26.7 µM (inactive).

Consider `COc1ccccc1N(CN1C(=O)CCC1C(=O)O)C(C)=O` (centres undefined), for which the GI50 in assay [1], in [2], in assay [3], in assay [4], in assay [5] and in assay [7] was > 100 µM (inactive) throughout. Further, the GI50 in [8] was > 100 µM (inactive); in [9] it was > 100 µM (inactive); in assay [10], > 100 µM (inactive); in [11] it was > 100 µM (inactive); in assay [12] it was 72.6 µM (inactive); in [13], > 100 µM (inactive). For the same compound, the GI50 was > 100 µM (inactive) in [14]; 0.138 µM (active) in assay [15]; > 100 µM (inactive) in [16]; > 100 µM (inactive) in assay [17]; > 100 µM (inactive) in assay [18]; > 100 µM (inactive) in [19]. Also, the GI50 in [20] was > 100 µM (inactive).

Turning to `CC[C@@]1(O)C(=O)OCc2c1cc1n(c2=O)Cc2c-1nc1ccccc1c2/C=N\NC(=O)C(N)Cc1c[nH]cn1` (some centres undefined), the GI50 in [1] was 0.234 µM (active); in assay [2] it was 7.74 µM (inactive); in assay [3], 0.644 µM (active); in assay [4], 0.0259 µM (active); in [5] it was 0.571 µM (active); in assay [6], 0.0214 µM (active). Moreover, the GI50 was > 64.9 µM (inactive) in assay [7]; 0.213 µM (active) in assay [8]; 0.0673 µM (active) in assay [9]; 8.39 µM (inactive) in assay [10]; 0.356 µM (active) in assay [11]; 0.0101 µM (active) in assay [12]. The GI50 is 0.0776 µM (active) in assay [13]; 1.37 µM (inactive) in assay [14]; 3.75 µM (inactive) in [15]; 13.3 µM (inactive) in assay [16]; 0.147 µM (active) in [17]; 1.26 µM (inactive) in [18]. Moreover, the GI50 in [19] was 0.043 µM (active); in assay [20] it was 1.1 µM (active).

Turning to `CCOC(=O)Oc1ccc2c(c1)c(=O)c1c(NCCCN(CC)CC)ccc3nnn2c31`, the GI50 was 11.3 µM (inactive) in [1]; 16.2 µM (inactive) in [2]; 0.303 µM (active) in [3]; 0.745 µM (active) in [4]; 7.18 µM (inactive) in assay [5]; 0.889 µM (active) in assay [6]. Also, the GI50 in [7] is 20.5 µM (inactive); in assay [8], 1.59 µM (inactive); in assay [9] it was 3.67 µM (inactive); in assay [10], 11.7 µM (inactive); in assay [11], 2.17 µM (inactive); in [12], 1.57 µM (inactive). In addition, the GI50 is 10.4 µM (inactive) in assay [13]; 5.45 µM (inactive) in assay [14]; 5.36 µM (inactive) in assay [15]; 2.79 µM (inactive) in [16]; 0.53 µM (active) in [17]; 18.6 µM (inactive) in assay [18]. The GI50 in assay [19] is 0.82 µM (active); in assay [20], 6.76 µM (inactive).

For the compound `COc1cccc(/C=C\c2ccc(O)cc2)c1`, the GI50 in assay [1] is 36.5 µM (inactive); in assay [2] it was 25.8 µM (inactive); in [3] it was 11.7 µM (inactive); in assay [4], 3.6 µM (inactive); in [5], 28.2 µM (inactive); in assay [7], 19.7 µM (inactive). The GI50 in assay [8] was 10.4 µM (inactive); in [9] it was 22.9 µM (inactive); in assay [10], 48.1 µM (inactive); in assay [11], 22.4 µM (inactive); in [12], 2.72 µM (inactive); in assay [13], 11.2 µM (inactive). The GI50 in assay [14] was 19.5 µM (inactive); in [15] it was 26.7 µM (inactive); in [16] it was 52.4 µM (inactive); in assay [17], 17.7 µM (inactive); in assay [18], 40.1 µM (inactive); in assay [19] it was 3.64 µM (inactive). The GI50 in assay [20] was 18.2 µM (inactive).

Turning to `COc1cc2ccccc2oc1=O`, the GI50 was 23.3 µM (inactive) in assay [2]; > 100 µM (inactive) in assay [3]; 67.3 µM (inactive) in [4]; > 100 µM (inactive) in [5]; 41.9 µM (inactive) in assay [6]; 45.9 µM (inactive) in assay [7]. Besides, the GI50 in assay [8], in [9], in assay [10], in [11], in assay [12] and in assay [13] was > 100 µM (inactive) throughout. The GI50 in assay [14] is > 100 µM (inactive); in assay [15], > 100 µM (inactive); in assay [16], 77.6 µM (inactive); in assay [17], 99.3 µM (inactive); in assay [18], 84.5 µM (inactive); in assay [19], 63 µM (inactive). In assay [20], the GI50 was 40 µM (inactive).

With `COc1cccc2c1C(=N)c1c(O)c3c(c(O)c1C2=O)C[C@@](O)(C(C)=O)C[C@@H]3OC1CC(N)C(O)C(C)O1` (some centres undefined), the GI50 in [1] was 0.43 µM (active); in [2], 1.48 µM (inactive); in [3], < 0.01 µM (active); in assay [4], 0.000132 µM (active); in [5] it was 0.137 µM (active); in assay [6] it was 0.0001 µM (active). Also, the GI50 in [7] is 0.00123 µM (active); in assay [8], 0.171 µM (active); in assay [9], 0.00771 µM (active); in assay [10], 0.394 µM (active); in assay [11], 0.000159 µM (active); in assay [12] it was 0.00466 µM (active). The GI50 in [13] was 0.000228 µM (active); in [14], < 0.01 µM (active); in assay [15] it was 1.38 µM (inactive); in assay [16] it was 1.31 µM (inactive); in [17], 0.141 µM (active); in [18], 2.3 µM (inactive). In addition, the GI50 in assay [19] was 0.244 µM (active); in assay [20], 0.655 µM (active).
